Reference: patent publication US12458659B2, “Methods for treating macrophage-mediated diseases, and methods of identifying agents useful therefore” (The Regents of the University of California, priority 2019, dated 2025)

Columns and labels:
Type in all cases: cell-based, mouse
BMDM [1] = experiment: Mitochondrial reactive oxygen species (MitoSOX); settings: BMDM pretreated with RSM932A, LPS+DOTAP or LPS+nigericin
Procedure: (§1) Mitochondrial Function—Mitochondrial membrane potential (Ψm) was measured using TMRM (#T668, Life Technologies) according to manufacturer's instructions. Briefly, RSM932A-pretreated BMDM and shCtrl and shChoKα iBMDM were primed with LPS for 4 hr. Cells were stained with 200 nM TMRM for 30 min at 37° C., and then treated with CCCP (5 μM) for 5 min. After washing twice, fluorescence intensity was determined per manufacturer's instructions using a FilterMax F5 multimode plate reader (Molecular Devices), Mitochondrial reactive oxygen species (mtROS) was measured using MitoSOX (Invitrogen) as described (Zhong et al., 2016c). […] After washing with PBS, fluorescence intensity was determined at 510/580 nm using a FilterMax F5 plate reader. NAD^+/NADH ratio was measured using NAD^+/NADH Cell-Based Assay kit according to manufacturer's instructions (Cayman Chemical Company). […] Absorbance was measured at 450 nm using FilterMax F5 plate reader. Complex V ATP synthase activity was measured in mitochondria isolated from BMDM treated with LPS for 24 hr using Complex V Activity Assay kit (Cayman Chemical Company) according to manufacturer's instructions. Absorbance was measured at 340 nm at 30-second intervals for 30 min using a FilterMax F5 plate reader. Cellular ATP was measured after 24 hr LPS stimulation using CellTiter-Glo Luminescent Assay (Promega) as described (Ip et al., 2017). […]

caspase-1 = experiment: Caspase-1 activation in LPS-primed, ATP-treated BMDM (immunoblot); settings: ATP-treated BMDM pretreated with RSM932A
Procedure: Macrophage culture and stimulation—Femurs and tibias from C57BL/6 mice, Ampkα1^−/− mice, and Il10rb^−/− mice at 6-10 weeks of age were used to generate bone-marrow-derived macrophages (BMDM) as described (Hornung et al., 2008). Macrophages were cultured in DMEM supplemented with 10% FBS, 20% L929-cell conditioned medium, and 100 U/ml penicillin-streptomycin for 7-10 days. Bone marrow was isolated from MWS Nlrp3^A350VneoRCreT, FCAS Nlrp3^L351PneoCreT and NOMID Nlrp3^D301NneoCreT conditional knock-in mice (Bonar et al., 2012; Brydges et al., 2009), and were allowed to differentiate over 7 days with addition of fresh mouse recombinant GMCSF every three days. (Z)-4-hydroxitamoxifen at 0.4 μg/ml was added to cells 24 hr prior to treatment to induce the mutant Nlrp3 allele. Immortalized mouse BMDM were grown in DMEM supplemented with 10% FBS and 100 U/ml penicillin-streptomycin. All cells were grown at 37° C. with 5% CO2. […]
Protein Immunoblotting and ELISA—Mitochondria were isolated using Mitochondria Isolation kit. Whole cell lysates were prepared in NP40 buffer containing a protease inhibitor cocktail and a phosphatase inhibitor cocktail, and supernatants were analyzed by SDS-PAGE. […]

BMDM [2] = experiment: Mitochondrial membrane potential (TMRM); settings: RSM932A-pretreated, LPS-primed; at least as effectively as CCCP
Procedure: as §1

- caspase-1 activation (caspase-1): inhibited
SMILES: C/[N+](c1ccc(Cl)cc1)=c1\ccn(Cc2ccc(-c3ccc(Cn4cc/c(=[N+](/C)c5ccc(Cl)cc5)c5ccccc54)cc3)cc2)c2ccccc12 [RSM932A]
- production of mitochondrial reactive oxygen species (mtROS) (BMDM [1]): attenuated
- mitochondrial membrane potential (Ψm) (BMDM [2]): reduced
